The text below walks through data of the supplement of paper PMC11962398.

Compound in test [1]: T1, C[C@H]1CNCCN1c1nccc(-c2noc3c2CCC[C@@]32CCCc3sc(N)c(C#N)c32)n1 [BI-2493]
As to conditions: 5 days. How it is done:
(§1)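 PRISM pooled barcoded cancer cell line viability screen (Broad Institute) with BI-2493 at 8 doses in threefold dilutions from 0.00457 to 10 µmol/L, 5-day treatment; curves fitted per cell line. IC50 is undefined (placeholder) for resistant lines. AUC is capped at 1, and sensitivity is reported as 1 − AUC.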

Compound in test [2]: T1, BI-2493
Briefly: 1 - AUC of viability dose-response curve (sensitivity) (fraction); higher = more sensitive. As to conditions: 5 days. How it is done:
as §1

For the test system PECAPJ49_UPPER_AERODIGESTIVE_TRACT, in the test with BI-2493 [1], the “IC50 of cell viability” value came to 5.93 µM. In addition, in the test with BI-2493 [2], the “1 - AUC of viability dose-response curve” value is 0.0961.

For the test system “KARPAS1718_HAEMATOPOIETIC_AND_LYMPHOID_TISSUE”, the “IC50 of cell viability” value with BI-2493 [1] was found to be 4.87 µM. Also, in the test with BI-2493 [2], the “1 - AUC of viability dose-response curve” value was determined as 0.0894.

Consider “U2904_HAEMATOPOIETIC_AND_LYMPHOID_TISSUE”, for which the “IC50 of cell viability” value with BI-2493 [1] amounted to 9.63 µM. The “1 - AUC of viability dose-response curve” value with BI-2493 [2] stood at 0.0108.

Consider CAL51_BREAST, for which the “IC50 of cell viability” value with BI-2493 [1] was 9.13 µM. The “1 - AUC of viability dose-response curve” value with BI-2493 [2] was 0.0624.

Turning to IGROV1_OVARY, in the test with BI-2493 [1], the “IC50 of cell viability” value is 8.03 µM. Also, the “1 - AUC of viability dose-response curve” value in the test with BI-2493 [2] worked out at 0.205.

Regarding NCIN87_STOMACH, the “IC50 of cell viability” value with BI-2493 [1] came out at 9.6 µM. For the same test system, in the test with BI-2493 [2], the “1 - AUC of viability dose-response curve” value worked out at 0.00691.

On to HCT116_LARGE_INTESTINE, for which the “IC50 of cell viability” value with BI-2493 [1] came to 4.75 µM. In addition, the “1 - AUC of viability dose-response curve” value with BI-2493 [2] was 0.167.

Turning to 9505BIK_PANCREAS, in the test with BI-2493 [1], the “IC50 of cell viability” value turned out to be 1.57 µM. Moreover, the “1 - AUC of viability dose-response curve” value in the test with BI-2493 [2] was determined as 0.321.

In the case of MS751_CERVIX, the “IC50 of cell viability” value with BI-2493 [1] was determined as 8.93 µM. In the test with BI-2493 [2], the “1 - AUC of viability dose-response curve” value worked out at 0.029.

Consider NCIH1435_LUNG, for which the “IC50 of cell viability” value in the test with BI-2493 [1] was 4.95 µM. In addition, the “1 - AUC of viability dose-response curve” value in the test with BI-2493 [2] worked out at 0.0748.

Turning to CADOES1_BONE, the “IC50 of cell viability” value in the test with BI-2493 [1] is 9.64 µM. Moreover, the “1 - AUC of viability dose-response curve” value with BI-2493 [2] stood at 0.00999.

LXF289_LUNG: in the test with BI-2493 [1], the “IC50 of cell viability” value stood at 8.04 µM. For the same test system, in the test with BI-2493 [2], the “1 - AUC of viability dose-response curve” value amounted to 0.103.

With SNU668_STOMACH, in the test with BI-2493 [1], the “IC50 of cell viability” value worked out at 6.46 µM. The “1 - AUC of viability dose-response curve” value in the test with BI-2493 [2] is 0.234.

In the case of C4I_CERVIX, the “IC50 of cell viability” value with BI-2493 [1] worked out at 3.49 µM. In addition, the “1 - AUC of viability dose-response curve” value in the test with BI-2493 [2] is 0.154.

MCC142_SKIN: the “IC50 of cell viability” value with BI-2493 [1] was 9.48 µM. The “1 - AUC of viability dose-response curve” value in the test with BI-2493 [2] worked out at 0.0347.

In the case of WM88_SKIN, in the test with BI-2493 [1], the “IC50 of cell viability” value was determined as 8.79 µM. Further, the “1 - AUC of viability dose-response curve” value with BI-2493 [2] stood at 0.0214.

TYKNU_OVARY: the “IC50 of cell viability” value in the test with BI-2493 [1] amounted to 9.48 µM. Also, the “1 - AUC of viability dose-response curve” value with BI-2493 [2] stood at 0.0105.

As for SW837_LARGE_INTESTINE, in the test with BI-2493 [1], the “IC50 of cell viability” value came out at 5.95 µM. In the test with BI-2493 [2], the “1 - AUC of viability dose-response curve” value was 0.0901.

In the case of GP5D_LARGE_INTESTINE, in the test with BI-2493 [1], the “IC50 of cell viability” value is > 10 µM. In the test with BI-2493 [2], the “1 - AUC of viability dose-response curve” value was 0.0606.

Regarding DV90_LUNG, in the test with BI-2493 [1], the “IC50 of cell viability” value came out at 0.856 µM. Further, the “1 - AUC of viability dose-response curve” value with BI-2493 [2] came out at 0.308.

In the case of HKA1_SKIN, the “IC50 of cell viability” value with BI-2493 [1] was found to be 4 µM. Besides, in the test with BI-2493 [2], the “1 - AUC of viability dose-response curve” value is 0.111.

JHH6_LIVER: in the test with BI-2493 [1], the “IC50 of cell viability” value turned out to be 4.43 µM. For the same test system, in the test with BI-2493 [2], the “1 - AUC of viability dose-response curve” value turned out to be 0.0848.

Regarding HCC15_LUNG, the “IC50 of cell viability” value with BI-2493 [1] turned out to be 9.81 µM. Also, the “1 - AUC of viability dose-response curve” value with BI-2493 [2] was found to be 0.0598.

Consider YSCCC_BILIARY_TRACT, for which, in the test with BI-2493 [1], the “IC50 of cell viability” value is 5.65 µM. Further, the “1 - AUC of viability dose-response curve” value with BI-2493 [2] stood at 0.104.

TGBC1TKB_BILIARY_TRACT: the “IC50 of cell viability” value with BI-2493 [1] came to 7.28 µM. The “1 - AUC of viability dose-response curve” value in the test with BI-2493 [2] was 0.0559.

On to MKN1_STOMACH, for which the “IC50 of cell viability” value with BI-2493 [1] turned out to be 1.18 µM. Moreover, the “1 - AUC of viability dose-response curve” value with BI-2493 [2] came to 0.305.

Regarding SNU840_OVARY, the “IC50 of cell viability” value with BI-2493 [1] turned out to be 7.7 µM. Also, the “1 - AUC of viability dose-response curve” value with BI-2493 [2] is 0.0623.

As to SAOS2_BONE, the “IC50 of cell viability” value in the test with BI-2493 [1] came out at 9.58 µM. In the test with BI-2493 [2], the “1 - AUC of viability dose-response curve” value is 0.0212.

Regarding U118MG_CENTRAL_NERVOUS_SYSTEM, the “IC50 of cell viability” value with BI-2493 [1] is 6.46 µM. In addition, the “1 - AUC of viability dose-response curve” value in the test with BI-2493 [2] came to 0.0721.

Consider “SR786_HAEMATOPOIETIC_AND_LYMPHOID_TISSUE”, for which, in the test with BI-2493 [1], the “IC50 of cell viability” value came to 7.44 µM. In the test with BI-2493 [2], the “1 - AUC of viability dose-response curve” value came out at 0.0498.

Regarding SNU2372_BREAST, the “IC50 of cell viability” value with BI-2493 [1] was found to be 6.37 µM. Moreover, the “1 - AUC of viability dose-response curve” value in the test with BI-2493 [2] is 0.0682.

Consider ONDA9_CENTRAL_NERVOUS_SYSTEM, for which, in the test with BI-2493 [1], the “IC50 of cell viability” value worked out at 5.1 µM. Further, in the test with BI-2493 [2], the “1 - AUC of viability dose-response curve” value was found to be 0.0973.

G401_SOFT_TISSUE: the “IC50 of cell viability” value in the test with BI-2493 [1] is > 10 µM. Besides, the “1 - AUC of viability dose-response curve” value with BI-2493 [2] came to 0.17.

For KP3_PANCREAS, in the test with BI-2493 [1], the “IC50 of cell viability” value was found to be 6.52 µM. The “1 - AUC of viability dose-response curve” value with BI-2493 [2] was found to be 0.133.

As for TM31_CENTRAL_NERVOUS_SYSTEM, the “IC50 of cell viability” value with BI-2493 [1] was 8.57 µM. Further, the “1 - AUC of viability dose-response curve” value with BI-2493 [2] worked out at 0.0846.

For the test system TE11_OESOPHAGUS, the “IC50 of cell viability” value in the test with BI-2493 [1] is 4.31 µM. Besides, the “1 - AUC of viability dose-response curve” value in the test with BI-2493 [2] was determined as 0.102.

As for CHLA200_CENTRAL_NERVOUS_SYSTEM, in the test with BI-2493 [1], the “IC50 of cell viability” value was 9.58 µM. The “1 - AUC of viability dose-response curve” value with BI-2493 [2] was found to be 0.0104.
